The test system of experiment [1] is Scenedesmus acutus. Description: Growth inhibition of Scenedesmus acutus assessed as packed cell volume per ml of algal culture volume after 16 hr (reference value: 3.8 ul pcv/ml). The format is functional.
Experiment [2] relates to Scenedesmus acutus. Description: Phytotoxicity against Scenedesmus acutus assessed as inhibition of chlorophyll content after 16 hr by spectrophotometry relative to untreated control. The format is functional.

As to `C#CCOc1cc(N2C(=O)C3=C(CCCC3)C2=O)c(F)cc1Cl`, the Activity in experiment [1] amounted to 2.4 uL/ml. Also, the “inhibition (INH)” value in experiment [2] was 73.6%.

As for `Fc1cc(Cl)c(OC(F)F)cc1-n1nc2c(c1Cl)CCCC2`, the Activity in experiment [1] came to 1.5 uL/ml. Moreover, in experiment [2], the “inhibition (INH)” value was 89.7%.

Turning to `N#Cc1cnn(-c2c(Cl)cc(C(F)(F)F)cc2Cl)c1N`, the Activity in experiment [1] is recorded as 2 uL/ml. Moreover, the “inhibition (INH)” value in experiment [2] worked out at 61%.

On to `COc1cc(-n2nc(C)c(C)c2C)c(F)cc1Cl`, for which the Activity in experiment [1] was found to be 4.1 uL/ml. Moreover, the “inhibition (INH)” value in experiment [2] was 0%.

Take `C/C=C/COc1cc(-n2nc(C)c(C)c2C)c(F)cc1Cl`: in experiment [1], the Activity turned out to be 3.5 uL/ml. Further, the “inhibition (INH)” value in experiment [2] stood at 17.2%.

Turning to `C#CCOc1cc(-n2nc(C)c(Cl)c2C)c(Cl)cc1Cl`, the Activity in experiment [1] is listed as 4 uL/ml. In addition, the “inhibition (INH)” value in experiment [2] worked out at 0%.

For the compound `C#CCOc1cc(-n2nc(CC)c(Cl)c2CC)c(F)cc1Cl`, in experiment [1], the Activity is on record as 2.7 uL/ml. Also, the “inhibition (INH)” value in experiment [2] is on record as 30.3%.

On to `Cc1nn(-c2cc(OC(C)C)c(Cl)cc2F)c(C)c1C`, for which the Activity in experiment [1] is reported as 3.9 uL/ml. For the same compound, in experiment [2], the “inhibition (INH)” value is on record as 11.1%.

Turning to `Cc1cc(C)n(-c2ccc(Cl)cc2F)n1`, the Activity in experiment [1] is 4.1 uL/ml. For the same compound, the “inhibition (INH)” value in experiment [2] is 0%.

As for `C#CCOc1cc(-n2nc(C)c(Cl)c2C)c(Cl)cc1F`, the Activity in experiment [1] was 3.1 uL/ml. The “inhibition (INH)” value in experiment [2] is listed as 26.7%.

On to `C#CCOc1cc(-n2nc(C)c(Cl)c2C)c(F)cc1Cl`, for which the Activity in experiment [1] is recorded as 2.7 uL/ml. Further, in experiment [2], the “inhibition (INH)” value is recorded as 38.5%.

Turning to `Cc1nn(-c2cc(OC(C)C)c(Cl)cc2F)c(C)c1[N+](=O)[O-]`, in experiment [1], the Activity was found to be 3.5 uL/ml. In experiment [2], the “inhibition (INH)” value was determined as 17.7%.

Consider `C#CCOc1cc(-n2nc(C)c([N+](=O)[O-])c2C)c(F)cc1Cl`, for which the Activity in experiment [1] stood at 2.5 uL/ml. Besides, the “inhibition (INH)” value in experiment [2] was found to be 46%.

For `O=C1C2=C(CCCC2)C(=O)N1c1ccc(Cl)cc1` [CHLOROPHTHALIUM], the Activity in experiment [1] is reported as 2.5 uL/ml. The “inhibition (INH)” value in experiment [2] was found to be 72.3%.

`CCOc1cc(Oc2ccc(C(F)(F)F)cc2Cl)ccc1[N+](=O)[O-]` [OXYFLUORFEN]: the Activity in experiment [1] was 1.4 uL/ml. The “inhibition (INH)” value in experiment [2] amounted to 92.2%.

The record behind these values is ChEMBL document CHEMBL3045138, “Peroxidizing Phytotoxic Activity of Pyrazoles” (J Pestic Sci, 1995).
